Experimental data published in US8008322B2, “Substituted pyrazolopyridines, compositions containing them, method for the production thereof, and their use” (Aventis Pharma S.A., priority 2005, dated 2011).

Experiments:
human Tie2 = target: T1, human Tie2 (Homo sapiens, UniProt Q02763); assay: Tie2 phosphorylation of PLC inhibition, FlashPlate radioactivity; format: biochemical; conditions: GST-Tie2 intracellular domain 776-1124, substrate GST-PLC, 33P-ATP, one hour at 37° C.; read-out: TIE2 IC 50
T1 construct: the amino acids of the intracellular domain 776-1124; made in house; host or cells: baculovirus expression system (pFastBacGT)
T1 sequence (Q02763 776-1124): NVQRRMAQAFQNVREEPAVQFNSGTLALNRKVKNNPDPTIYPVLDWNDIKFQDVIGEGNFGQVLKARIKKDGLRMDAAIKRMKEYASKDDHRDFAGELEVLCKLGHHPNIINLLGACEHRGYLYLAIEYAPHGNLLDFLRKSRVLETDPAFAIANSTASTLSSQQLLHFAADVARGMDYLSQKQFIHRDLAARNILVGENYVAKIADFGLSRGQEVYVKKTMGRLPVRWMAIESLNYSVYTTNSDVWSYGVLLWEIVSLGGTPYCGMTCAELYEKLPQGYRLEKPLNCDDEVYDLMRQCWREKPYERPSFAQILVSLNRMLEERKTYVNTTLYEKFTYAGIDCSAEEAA
Description: This sequence was introduced into a pFastBacGT baculovirus expression vector in the form of a GST fusion protein. The inhibitory effect of the molecules is determined in a test of phosphorylation of PLC with Tie2 in the presence of GST-Tie2 purified to about 80% homogeneity. The substrate is composed of the SH2-SH3 fragments of PLC expressed in the form of a GST fusion protein.
The kinase activity of Tie2 is measured in a MOPS 20 mM pH 7.2 buffer, containing 10 mM MgCl2, 10 mM MnCl2, 1 mM DTT, 10 mM of glycerophosphate. In a 96-well FlashPlate plate maintained on ice, a reaction mixture is deposited, composed of 70 μL of kinase buffer containing 100 ng of enzyme GST-Tie2 per well. Next, 10 μL of the test molecule diluted in DMSO to a maximum concentration of 10% are added. For a given concentration, each measurement is performed four times. […] After incubation for one hour at 37° C., the reaction is stopped by adding 1 volume (100 μl) of EDTA 200 mM. After removal of the incubation buffer, the wells are washed three times with 300 μL of PBS. The radioactivity is measured on a MicroBeta1450 Wallac.
The inhibition of the Tie2 activity is calculated and expressed as a percentage of inhibition relative to the control activity determined in the absence of compound.

human KDR enzyme = target: T2, human KDR enzyme (Homo sapiens, UniProt P35968); assay: KDR substrate phosphorylation inhibition, scintillation technique; format: biochemical; conditions: GST-KDR cytoplasmic domain, substrate SH2-SH3 fragment of PLCγ, 33P-ATP, one hour at 37° C.; read-out: KDR IC 50
T2 construct: The cytoplasmic domain of the human KDR enzyme was cloned in the form of a GST fusion protein; GST; made in house; host or cells: SF21 insect cells (baculovirus, pFastBac)
T2 sequence (P35968 786-1356 limits assumed): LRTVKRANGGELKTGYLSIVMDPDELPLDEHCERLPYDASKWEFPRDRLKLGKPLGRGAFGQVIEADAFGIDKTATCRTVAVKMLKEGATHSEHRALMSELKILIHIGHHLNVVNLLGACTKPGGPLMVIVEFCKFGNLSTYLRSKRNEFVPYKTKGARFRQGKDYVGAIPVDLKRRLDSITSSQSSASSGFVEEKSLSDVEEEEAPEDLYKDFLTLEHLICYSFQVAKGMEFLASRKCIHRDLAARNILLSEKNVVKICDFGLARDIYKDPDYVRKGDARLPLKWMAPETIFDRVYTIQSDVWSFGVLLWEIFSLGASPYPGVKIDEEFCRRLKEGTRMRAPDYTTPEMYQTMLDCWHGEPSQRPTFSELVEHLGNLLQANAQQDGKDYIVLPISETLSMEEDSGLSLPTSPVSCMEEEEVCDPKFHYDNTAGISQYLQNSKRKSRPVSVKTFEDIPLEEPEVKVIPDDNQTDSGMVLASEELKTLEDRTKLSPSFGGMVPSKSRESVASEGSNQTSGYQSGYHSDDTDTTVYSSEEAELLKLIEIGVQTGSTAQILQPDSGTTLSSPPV
Description: The inhibitory effect of the compounds is determined in an in vitro test of phosphorylation of substrate with the enzyme KDR via a scintillation technique (96-well plate, NEN).
The cytoplasmic domain of the human KDR enzyme was cloned in the form of a GST fusion protein in the pFastBac baculovirus expression vector.
The KDR kinase activity is measured in a 20 mM MOPS, 10 mM MgCl2, 10 mM MnCl2, 1 mM DTT, 2.5 mM EGTA, 10 mM b-glycerophosphate, pH=7.2 buffer, in the presence of 10 mM MgCl2, 100 μm Na3VO4, 1 mM NaF. 10 μl of the compound are added to 70 μL of kinase buffer containing 100 ng of KDR enzyme at 4° C. The reaction is initiated by adding 20 μL of solution containing 2 μg of substrate (SH2-SH3 fragment of PLCγ expressed in the form of a GST fusion protein), 2 μCi of γ^33P[ATP] and 2 μm of cold ATP. After incubation for one hour at 37° C., the reaction is stopped by adding 1 volume (100 μl) of 200 mM EDTA. The incubation buffer is removed, and the wells are washed three times with 300 μL of PBS. The radioactivity in each well is measured using a Top Count NXT radioactivity counter (Packard).
The background is determined by measuring the radioactivity in four different wells containing radioactive ATP and the substrate alone.
A total activity control is measured in four different wells containing all the reagents (γ^33P-[ATP], KDR and substrate PLCγ), but in the absence of compound.
The inhibition of the KDR activity with the compound of the invention is expressed as a percentage of inhibition of the control activity determined in the absence of compound.

human FAK = target: T3, human FAK (Homo sapiens, UniProt Q05397); assay: FAK autophosphorylation inhibition, time-resolved fluorescence test (HTRF); format: biochemical; conditions: 15 μM ATP, 1 hour at 37° C., read-out: FAK IC 50
T3 construct: The whole cDNA of human FAK, the N-terminal end of which has been labelled with histidine; made in house; host or cells: baculovirus expression system (pFastBac HTc)
T3 sequence (Q05397 whole entry): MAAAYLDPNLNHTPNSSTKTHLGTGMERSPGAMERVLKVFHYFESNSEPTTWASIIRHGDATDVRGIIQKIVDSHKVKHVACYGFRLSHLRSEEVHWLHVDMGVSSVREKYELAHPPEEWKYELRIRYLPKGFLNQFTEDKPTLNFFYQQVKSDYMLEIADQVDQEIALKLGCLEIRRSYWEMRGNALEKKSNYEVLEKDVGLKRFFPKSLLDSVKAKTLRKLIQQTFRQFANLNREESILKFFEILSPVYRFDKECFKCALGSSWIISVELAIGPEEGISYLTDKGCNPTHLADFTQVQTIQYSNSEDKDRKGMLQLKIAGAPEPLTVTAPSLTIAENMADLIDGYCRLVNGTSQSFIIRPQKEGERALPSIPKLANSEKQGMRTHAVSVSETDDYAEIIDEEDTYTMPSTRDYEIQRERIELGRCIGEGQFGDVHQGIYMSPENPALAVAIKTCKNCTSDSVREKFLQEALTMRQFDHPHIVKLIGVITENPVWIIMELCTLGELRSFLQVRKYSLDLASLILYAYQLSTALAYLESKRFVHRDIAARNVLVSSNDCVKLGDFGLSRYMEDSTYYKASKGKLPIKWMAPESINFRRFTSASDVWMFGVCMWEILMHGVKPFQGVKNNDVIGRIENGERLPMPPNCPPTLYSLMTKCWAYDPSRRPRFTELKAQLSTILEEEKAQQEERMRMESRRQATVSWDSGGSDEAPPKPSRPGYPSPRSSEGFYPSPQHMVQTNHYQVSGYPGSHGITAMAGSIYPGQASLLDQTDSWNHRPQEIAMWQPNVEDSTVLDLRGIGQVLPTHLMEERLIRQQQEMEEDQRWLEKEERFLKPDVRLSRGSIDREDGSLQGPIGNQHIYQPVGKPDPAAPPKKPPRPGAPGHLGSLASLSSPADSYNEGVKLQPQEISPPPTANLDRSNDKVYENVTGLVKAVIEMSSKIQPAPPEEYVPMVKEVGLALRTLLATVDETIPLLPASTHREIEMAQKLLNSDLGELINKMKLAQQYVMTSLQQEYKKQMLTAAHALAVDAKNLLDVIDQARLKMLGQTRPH
Description: The inhibitory activity of the compounds on FAK is determined by measuring the inhibition of autophosphorylation of the enzyme using a time-resolved fluorescence test (HTRF).
The whole cDNA of human FAK, the N-terminal end of which has been labelled with histidine, was cloned in a pFastBac HTc baculovirus expression vector. The protein was expressed and purified to about 70% homogeneity.
The kinase activity is determined by incubating the enzyme (6.6 μg/mL) with different concentrations of test compound in a 50 mM Hepes pH=7.2, 10 mM MgCl2, 100 μm Na3VO4, 15 μM ATP buffer for 1 hour at 37° C. The enzymatic reaction is stopped by adding Hepes pH=7.0 buffer containing 0.4 mM KF, 133 mM EDTA, 0.1% BSA and the labelling is performed, for 1 to 2 hours at room temperature, by adding to this buffer an anti-Histidine antibody labelled with XL665 and a tyrosine phosphospecific monoclonal antibody conjugated to europium cryptate (Eu—K). The characteristics of the two fluorophores are available in G. Mathis et al., Anticancer Research, 1997, 17, pages 3011-3014. The energy transfer from the excited europium cryptate to the acceptor XL665 is proportional to the degree of autophosphorylation of FAK. The long-lasting signal specific for XL-665 is measured in a Packard Discovery plate counter. All the tests are performed in duplicate and the average of the two tests is calculated. The inhibition of the autophosphorylation activity of FAK with compounds of the invention is expressed as a percentage of inhibition relative to a control whose activity is measured in the absence of test compound. To calculate the percentage inhibition, the ratio [signal at 665 nm/signal at 620 nm] is considered.

Compound | melting point | IC50 (human Tie2) | IC50 (human KDR enzyme) | IC50 (human FAK)
Cc1ccc(F)c(NC(=O)Nc2ccc(-c3nccc4[nH]nc(N)c34)cc2)c1 [Example 27, 1-[4-(3-Amino-1H-pyrazolo[4,3-c]pyrid-4-yl)phenyl]-3-(2-fluoro-5-methylphenyl-)urea] | 195 °C | – | – | –
Cc1ccc(F)cc1NC(=O)Nc1ccc(-c2nccc3[nH]nc(N)c23)cc1 [Example 34, 1-[4-(3-Amino-1H-pyrazolo[4,3-c]pyrid-4-yl)phenyl]-3-(5-fluoro-2-methylphenyl)urea] | > 265 °C | – | – | –
Nc1n[nH]c2nccc(-c3ccc(NC(=O)Nc4cc(C(F)(F)F)ccc4F)cc3)c12 [Example 1, 1-[4-(3-Amino-1H-pyrazolo[3,4-b]pyrid-4-yl)phenyl]-3-(2-fluoro-5-trifluoromethylphenyl)urea] | – | – | – | 264 nM
CC(=O)Nc1ccc(C(F)(F)F)cc1NC(=O)Nc1ccc(-c2nccc3[nH]nc(N)c23)cc1 [Example 11, N-(2-{3-[4-(3-Amino-1H-pyrazolo[4,3-c]pyrid-4-yl)phenyl]ureido}-4-trifluoromethylphenyl)acetamide] | 182 °C | – | – | –
Nc1n[nH]c2ccnc(-c3ccc(NC(=O)Nc4cc(F)ccc4F)cc3)c12 [Example 32, 1-[4-(3-Amino-1H-pyrazolo[4,3-c]pyrid-4-yl)phenyl]-3-(2,5-difluorophenyl)urea] | 187 °C | – | – | –
Nc1n[nH]c2cncc(-c3ccc(NC(=O)Nc4cc(C(F)(F)F)ccc4F)cc3)c12 [Example 7, 1-[4-(3-Amino-1H-pyrazolo[3,4-c]pyrid-4-yl)phenyl]-3-(2-fluoro-5-trifluoromethylphenyl)urea] | 196 °C | 9 nM | – | –
Nc1n[nH]c2ccnc(-c3ccc(NC(=O)Nc4ccccc4)cc3)c12 [Example 8, 1-[4-(3-Amino-1H-pyrazolo[4,3-c]pyrid-4-yl]phenyl]-3-phenylurea] | 188 °C | – | – | –
CCOc1ccc(C(F)(F)F)cc1NC(=O)Nc1ccc(-c2ccnc3[nH]nc(N)c23)cc1 [Example 14, 1-[4-(3-Amino-1H-pyrazolo[3,4-b]pyrid-4-yl)phenyl]-3-(2-ethoxy-5-trifluoromethylphenyl)urea] | – | 21 nM | 24 nM | –

Second part, the molecule after the results:

melting point | IC50 (human Tie2) | IC50 (human KDR enzyme) | IC50 (human FAK) | Compound
181 °C | – | – | – | COc1ccc(C(C)(C)C)cc1NC(=O)Nc1ccc(-c2nccc3[nH]nc(N)c23)cc1 [Example 29, 1-[4-(3-Amino-1H-pyrazolo[4,3-c]pyrid-4-yl)phenyl]-3-(5-tert-butyl-2-methoxyphenyl)urea]
228 °C | – | – | – | COc1ccc(C(F)(F)F)cc1NC(=O)Nc1ccc(-c2nccc3[nH]nc(N)c23)cn1 [Example 9, 1-[5-(3-Amino-1H-pyrazolo[4,3-c]pyrid-4-yl)pyrid-2-yl]-3-(2-methoxy-5-trifluoromethylphenyl)urea]
200 °C | 10 nM | 60 nM | – | COc1ccc(C(F)(F)F)cc1NC(=O)Nc1ccc(-c2nccc3[nH]nc(N)c23)cc1 [Example 10, 1-[4-(3-Amino-1H-pyrazolo[4,3-c]pyrid-4-yl)phenyl]-3-(2-methoxy-5-trifluoromethylphenyl)urea]
> 260 °C | 15 nM | 49 nM | 286 nM | COc1ccc(C(F)(F)F)cc1NC(=O)Nc1ccc(-c2ccnc3[nH]nc(N)c23)cc1 [Example 5, 1-[4-(3-Amino-1H-pyrazolo[3,4-b]pyrid-4-yl)phenyl]-3-(2-methoxy-5-trifluoromethylphenyl)urea]
210 °C | – | – | – | COc1ccc(C(F)(F)F)cc1NC(=O)Nc1ccc(-c2cncc3[nH]nc(N)c23)cc1 [Example 38, 1-[4-(3-Amino-1H-pyrazolo[3,4-c]pyrid-4-yl)phenyl]-3-(2-methoxy-5-trifluoromethylphenyl]urea]
– | 23 nM | 940 nM | 150 nM | Nc1n[nH]c2nccc(-c3ccc(NC(=O)Nc4cc(C(F)(F)F)ccc4F)nc3)c12 [Example 2, 1-[5-(3-Amino-1H-pyrazolo[3,4-b]pyrid-4-yl)pyrid-2-yl]-3-(2-fluoro-5-trifluoromethylphenyl)urea]
– | 5 nM | 33 nM | 73 nM | Nc1n[nH]c2ccnc(-c3ccc(NC(=O)Nc4cc(C(F)(F)F)ccc4F)cc3)c12 [Example 3, 1-[4-(3-Amino-1H-pyrazolo[4,3-c]pyrid-4-yl)phenyl]-3-(2-fluoro-5-trifluoromethylphenyl)urea]
> 260 °C | 27 nM | 1860 nM | 190 nM | COc1ccc(C(F)(F)F)cc1NC(=O)Nc1ccc(-c2ccnc3[nH]nc(N)c23)cn1 [Example 6, 1-[5-(3-Amino-1H-pyrazolo[3,4-b]pyrid-4-yl)pyrid-2-yl]-3-(2-methoxy-5-trifluoromethylphenyl)urea]
– | 4 nM | 218 nM | 80 nM | Nc1n[nH]c2ccnc(-c3ccc(NC(=O)Nc4cc(C(F)(F)F)ccc4F)nc3)c12 [Example 4, 1-[5-(3-Amino-1H-pyrazolo[4,3-c]pyrid-4-yl)pyrid-2-yl]-3-(2-fluoro-5-trifluoromethylphenyl)urea]
